In US9624229B2, “Pyrimidine-2-amine compounds and their use as inhibitors of JAK kinases” (Rigel Pharmaceuticals, Inc., priority 2008, dated 2017):

target: Ba/F3 V617F cells (Homo sapiens, UniProt O60674, V617F, cells depend on it); test: Proliferation assay (Cell Titer-Glo, 72 h) utilizing Ba/F3 V617F cells; assay type: cell-based, mouse; conditions: Ba/F3 V617F cells, proliferation, level of activity given as class symbol, read-out: IC50 (the source's name)
Outline: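 Ba/F3 V617F cells in RPMI/10% FBS, 1×10^5 cells/mL, exposed in duplicate to 3-fold serial compound dilutions (top 5 mM DMSO stock, diluted 1:250, added as 2× solution in 5% FBS medium) for 72 h at 37 °C. Viability by Cell Titer-Glo luminescence; IC50 reported.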

Ba/F3 V617F cells, sequence (O60674 whole entry V617F): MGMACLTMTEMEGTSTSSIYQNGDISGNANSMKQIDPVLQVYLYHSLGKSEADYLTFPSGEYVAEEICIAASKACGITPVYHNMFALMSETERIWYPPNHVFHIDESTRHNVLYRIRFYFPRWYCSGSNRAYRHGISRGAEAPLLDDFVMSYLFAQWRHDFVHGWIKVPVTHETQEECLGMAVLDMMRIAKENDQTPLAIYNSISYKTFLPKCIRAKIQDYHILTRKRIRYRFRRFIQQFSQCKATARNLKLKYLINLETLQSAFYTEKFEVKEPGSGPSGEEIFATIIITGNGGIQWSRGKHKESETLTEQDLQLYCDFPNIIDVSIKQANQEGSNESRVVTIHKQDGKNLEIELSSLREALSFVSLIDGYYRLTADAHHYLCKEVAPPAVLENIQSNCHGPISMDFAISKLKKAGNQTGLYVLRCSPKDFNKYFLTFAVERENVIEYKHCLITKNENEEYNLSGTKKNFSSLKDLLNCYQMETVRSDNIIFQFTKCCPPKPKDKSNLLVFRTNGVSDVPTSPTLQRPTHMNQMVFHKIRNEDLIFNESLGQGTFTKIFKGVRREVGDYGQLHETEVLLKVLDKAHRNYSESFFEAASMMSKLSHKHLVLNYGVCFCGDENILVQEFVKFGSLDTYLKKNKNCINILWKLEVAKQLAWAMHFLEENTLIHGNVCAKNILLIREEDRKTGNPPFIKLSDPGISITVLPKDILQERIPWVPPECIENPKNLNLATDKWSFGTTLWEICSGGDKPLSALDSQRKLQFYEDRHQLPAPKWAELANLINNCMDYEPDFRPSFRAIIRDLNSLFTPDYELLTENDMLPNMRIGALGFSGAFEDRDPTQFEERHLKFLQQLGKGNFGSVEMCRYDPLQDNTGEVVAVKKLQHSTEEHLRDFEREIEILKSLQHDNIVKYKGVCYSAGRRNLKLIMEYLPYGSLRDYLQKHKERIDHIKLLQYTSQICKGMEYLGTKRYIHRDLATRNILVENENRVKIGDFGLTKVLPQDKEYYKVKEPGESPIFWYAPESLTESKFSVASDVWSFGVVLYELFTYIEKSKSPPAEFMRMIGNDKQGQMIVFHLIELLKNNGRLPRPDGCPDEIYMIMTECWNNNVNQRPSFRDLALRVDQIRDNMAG

Row | GI50 | Compound
1 | < 1000 nM | Cc1cc(Nc2nccc(-c3ccc(N4C[C@@H]5C[C@H]4CO5)nc3)n2)ccc1N1C[C@@H]2C[C@H]1CO2 [compound 216, 4-(6-((1S,4S)-5-oxa-2-azabicyclo[2.2.1]heptan-2-yl)pyridin-3-yl)-N-(3-methyl-4-((1S,4S)-5-oxa-2-azabicyclo[2.2.1]heptan-2-yl)phenyl)pyrimidin-2-amine]
2 | < 1000 nM | Cc1cc(Nc2nccc(-c3ccc4c(ccn4-c4ccncc4)c3)n2)ccc1N1C[C@@H]2C[C@H]1CN2CC(C)C [compound 235, 4-(1-(pyridin-4-yl)-1H-indol-5-yl)-N-(3-methyl-4-((1S,4S)-5-isobutyl-2,5-diazabicyclo[2.2.1]heptan-2-yl)phenyl)pyrimidin-2-amine]
3 | < 1000 nM | Cc1cc(Nc2nccc(-c3cnc4c(c3)CCC(=O)N4)n2)ccc1N1C[C@@H]2C[C@H]1CN2S(C)(=O)=O [compound 237, 4-(7-oxo-5,6,7,8-tetrahydro-1,8-naphthyridin-3-yl)-N-(3-methyl-4-((1S,4S)-5-methylsulfonyl-2,5-diazabicyclo[2.2.1]heptan-2-yl)phenyl)pyrimidin-2-amine]

same assay, conditions: Ba/F3 V617F cells, proliferation, level of activity to inhibit JAK2, read-out: IC50 (the source's name)

Row | GI50 | Compound
4 | < 1000 nM | Cc1cc(Nc2nccc(-c3ccc(C(=O)Nc4ccccn4)cc3)n2)ccc1N1CCN2CCC1CC2 [compound 161, 4-(4-((pyridin-2-yl)aminocarbonyl)phenyl)-N-(3-methyl-4-(1,4-diazabicyclo[3.2.2]nonan-4-yl)phenyl)pyrimidin-2-amine]
5 | < 1000 nM | Cc1cc(Nc2nccc(-c3ccc(NC(=O)C(C)(C)C)cc3)n2)ccc1N1C[C@@H]2C[C@H]1CN2C [compound 129, 4-(4-(t-butylcarbonylamino)phenyl)-N-(3-methyl-4-((1S,4S)-5-methyl-2,5-diazabicyclo[2.2.1]heptan-2-yl)phenyl)pyrimidin-2-amine]
6 | 1000 to 10000 nM | CN1C[C@@H]2C[C@H]1CN2c1ccc(Nc2nccc(-c3ccc(NC(=O)CN4CCOCC4)nc3)n2)cc1 [compound 142, 4-(6-(2-(morpholin-4-yl)acetamido)pyridin-3-yl)-N-(4-((1S,4S)-5-methyl-2,5-diazabicyclo[2.2.1]heptan-2-yl)phenyl)pyrimidin-2-amine]
7 | 1000 to 10000 nM | CN1C2CCC1CN(c1ccc(Nc3nccc(-c4ccc(NS(C)(=O)=O)nc4)n3)cc1)C2 [compound 156, 4-(6-(methylsulfonylamino)pyridin-3-yl)-N-(4-(8-methyl-3,8-diazabicyclo[3.2.1]octan-3-yl)phenyl)pyrimidin-2-amine]
8 | < 1000 nM | Cc1cc(Nc2nccc(-c3ccc(NC4CCCCC4)nc3)n2)ccc1N1C[C@@H]2C[C@H]1CN2C [compound 78, 4-(6-(cyclohexylamino)pyridin-3-yl)-N-(3-methyl-4-((1S,4S)-5-methyl-2,5-diazabicyclo[2.2.1]heptan-2-yl)phenyl)pyrimidin-2-amine]
9 | < 1000 nM | Cc1cc(Nc2nccc(-c3ccc(N4C[C@@H]5C[C@H]4CN5c4ccc(F)cc4)nc3)n2)ccc1N1CCN(C)CC1 [compound 13, 4-(6-((1S,4S)-5-(4-fluorophenyl)-2,5-diazabicyclo-[2.2.1]-heptan-2-yl)pyridin-3-yl)-N-(3-methyl-4-(4-methyl-piperazin-1-yl)phenyl)-pyrimidin-2-amine]
10 | < 1000 nM | CNC(=O)c1ccc(-c2ccnc(Nc3ccc(N4C[C@@H]5C[C@H]4CN5C)c(C)c3)n2)cn1 [compound 50, 4-(6-(methylaminocarbonyl)pyridin-3-yl)-N-(3-methyl-4-((1S,4S)-5-methyl-2,5-diazabicyclo[2.2.1]heptan-2-yl)phenyl)pyrimidin-2-amine]
11 | < 1000 nM | CCCNc1ncc(-c2ccnc(Nc3ccc(N4C[C@@H]5C[C@H]4CN5C)c(C)c3)n2)cn1 [compound 92, 4-(2-(propyl)aminopyrimidin-5-yl)-N-(3-methyl-4-((1S,4S)-5-methyl-2,5-diazabicyclo[2.2.1]heptan-2-yl)phenyl)pyrimidin-2-amine]
12 | < 1000 nM | CN1CCOc2cc(-c3ccnc(Nc4ccc(N5C[C@@H]6C[C@H]5CN6C)c(F)c4)n3)cnc21 [compound 9, 4-(4-methyl-3,4-dihydro-2H-pyrido[3,2-b][1,4]oxazin-7-yl)-N-(3-fluoro-4-((1S,4S)-5-methyl-2,5-diazabicyclo[2.2.1]heptan-2-yl)phenyl)pyrimidin-2-amine]
13 | < 1000 nM | Cc1cc(Nc2nccc(-c3cnn(-c4ccc(F)cc4)c3)n2)ccc1N1C[C@@H]2C[C@H]1CN2C [compound 109, 4-(1-(4-fluorophenyl)-1H-pyrazol-4-yl)-N-(3-methyl-4-((1S,4S)-5-methyl-2,5-diazabicyclo[2.2.1]heptan-2-yl)phenyl)pyrimidin-2-amine]
14 | < 1000 nM | Cc1cc(Nc2nccc(-c3ccc4c(c3)CC(=O)N4)n2)ccc1N1C[C@@H]2C[C@H]1CN2C [compound 113, 4-(2-oxoindolin-5-yl)-N-(3-methyl-4((1S,4S)-5-methyl-2,5-diazabicyclo[2.2.1]heptan-2-yl)phenyl)pyrimidin-2-amine]
15 | < 1000 nM | CN1C2CCC1CN(c1ccc(Nc3nccc(-c4cnc5c(c4)OC(C)(C)C(=O)N5)n3)cc1)C2 [compound 157, 4-(2,2-dimethyl-3-oxo-3,4-dihydro-2H-pyrido[3,2-b][1,4]oxazin-7-yl)-N-(4-(8-methyl-3,8-diazabicyclo[3.2.1]octan-3-yl)phenyl)pyrimidin-2-amine]
16 | < 1000 nM | Cc1cc(Nc2nccc(-c3cnc4c(c3)OC(C)(C)C(=O)N4)n2)ccc1N1CCN2CCC1CC2 [compound 160, 4-(2,2-dimethyl-3-oxo-3,4-dihydro-2H-pyrido[3,2-b][1,4]oxazin-7-yl)-N-(3-methyl-4-(1,4-diazabicyclo[3.2.2]nonan-4-yl)phenyl)pyrimidin-2-amine]

same assay, conditions: inhibition of JAK2 activity, proliferation of Ba/F3 V617F cells, read-out: IC50 (the source's name)

Row | GI50 | Compound
17 | < 1000 nM | Cc1cc(-c2ccnc(Nc3cnc(N4C[C@@H]5C[C@H]4CN5C)c(C)c3)n2)cnc1N1CCOCC1 [compound 64, 4-(5-methyl-6-(morpholin-4-yl)pyridin-3-yl)-N-(5-methyl-6-((1S,4S)-5-methyl-2,5-diazabicyclo[2.2.1]heptan-2-yl)pyridin-3-yl)pyrimidin-2-amine]
